# Key:
# [1] = system: sweet sensitive panelists; assay: Ranking test, near threshold sweetness isointensity of enhancer in water (Example 3b); format: in vivo
# Protocol: The sensory evaluation was conducted using a ranking method. Samples at ambient temperature were randomly presented in 15 ml blind aliquots (unidentifiable by panelists). […] After tasting each sample, the mouth was rinsed thoroughly with water at ambient temperature prior to tasting the next sample. […] They were asked to rank the samples from low to high with respect to perceived sweet taste.
# sucrose sweetness = settings: at its sweetness detection threshold; Kroeze et al., Chem. Senses 2000; cited from earlier work
# [2] = system: sweet sensitive panelists; assay: Forced choice test of sweetness enhancers with sweetness rating (Example 2); format: in vivo; settings: scale 0-10
# Protocol: A forced choice test of sweetness enhancers in water, 2% sucrose and 7% sucrose
# All sweetness enhancer samples were evaluated at the same concentration, which was selected close to the threshold of each sweetness enhancer, in 0% sucrose (water), 2% sucrose, and 7% sucrose.
# The test samples were evaluated by a sensory panel of 10 sweet sensitive panelists. Samples were presented in 3 replicates to each panelist to give n=30 evaluations for each panel. The sensory evaluation was conducted using a forced choice method. Samples were presented blind, unidentifiable by panelists. Three runs at different sucrose concentrations were performed (0% sucrose (water/negative control), 2% sucrose, 7% sucrose). In each run, the sweetness enhancer sample was compared by panelists to a corresponding sample without sweetness enhancer at the same sucrose concentration. Panelists were instructed that they had to choose one of the samples as sweeter. The data was analyzed using beta-binomial analysis. […]
# Alternatively, 0% (water), 0.5% and/or 1% and/or 1.5% sucrose were used for samples/corresponding controls and evaluated accordingly.
# As a further control, the sweetness enhancer in water was compared to 0.5% and/or 1% and/or 1.5% sucrose. The result determined the sweetness intensity of the sweetness enhancer compound as such, without the sweetness due to the enhancement of sucrose.
Structure (SMILES),isointensity to sucrose solution ([1]; 2 ppm in water) [% sucrose],NDHC sample sweetness ([1]; 2 ppm in water vs 0.5% sucrose),NDHC sample sweetness ([1]; 2 ppm in water vs 1% sucrose),enhancement of sucrose sweetness (sucrose sweetness),rating 1% sucrose ([2]; rating 2 of Example 12B),rating 1% sucrose ([2]; rating 2 of Example 12C)
"COc1ccc(CCC(=O)c2c(O)cc(O[C@@H]3O[C@H](CO)[C@@H](O)[C@H](O)[C@H]3O[C@@H]3O[C@@H](C)[C@H](O)[C@@H](O)[C@H]3O)cc2O)cc1O [NDHC, Neohesperidin dihydrochalcone]",0.5,isosweet,less sweet,does not enhance sucrose sweetness,,
"OC[C@H]1O[C@@](CO)(O[C@H]2O[C@H](CO)[C@@H](O)[C@H](O)[C@H]2O)[C@@H](O)[C@@H]1O [sucrose, α-D-glucopyranosyl-(1→2)-β-D-fructofuranose]",,,,,0.81 ± 0.08,0.72 ± 0.06
